The term AC50 denotes the concentration giving half of the maximal activity seen. A high value points to weaker potency.

Each structure is given as a SMILES string.

AC50 data for 32 compounds are collected here from patent US20230104936A1, “TRPML MODULATORS” (Casma Therapeutics, Inc., priority 2019, published 2023).

The first assay relates to TFEB. Description: TFEB nuclear translocation assay, HeLa wt cells. Format: cell-based. Conditions: 2 hrs compound treatment, Table 1 does not say HeLa wt or TRPML1 KO. The method in brief:
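HeLa wt cells were treated with compound for 2 hrs at 37° C, then fixed in 4% PFA and immunostained for TFEB with an Alexa 488 secondary and Hoechst nuclear counterstain. Automated epifluorescence imaging at ×20 gave the ratio of nuclear TFEB intensity to a perinuclear ring region, from which AC50 was derived.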
As for `CC(C1CCN(c2c(F)cccc2NS(=O)(=O)c2ccc(S(=N)(=O)N(C)C)cc2)CC1)N1C[C@@H](C)O[C@@H](C)C1` (single isomer, unassigned) [Compound A-872], the AC50 is ≤ 2 µM.
The same measure, in the same setting: the figure for `CC(c1cccc(F)c1N1CCCCC1)S(=O)(=O)c1ccc(S2(=O)=NCCC2)cc1` (single isomer, unassigned) [Compound A-980, 1-(4-((1-(3-fluoro-2-(piperidin-1-yl)phenyl)ethyl)sulfonyl)phenyl)-4,5-dihydro-3H-isothiazole 1-oxide] is ≥ 10 µM; for `CC(c1cccc(F)c1N1CCC(C)(C(F)F)CC1)S(=O)(=O)c1ccc(S(=N)(=O)N(C)C)cc1` (single isomer, unassigned) [Compound A-975, 4-((1-(2-(4-(difluoromethyl)-4-methylpiperidin-1-yl)-3-fluorophenyl)ethyl)sulfonyl)-N,N-dimethylbenzenesulfonimidamide] it is ≥ 10 µM.
Still for that read-out and setting: the figure for `CC(c1cccc(F)c1N1CCC(CN2C3CCC2COC3)CC1)S(=O)(=O)c1ccc(S(C)(=O)=O)cc1` (single isomer, unassigned) [Compound A-914, 8-((1-(2-fluoro-6-(1-((4-(methylsulfonyl)phenyl)sulfonyl)ethyl)phenyl)piperidin-4-yl)methyl)-3-oxa-8-azabicyclo[3.2.1]octane] is ≥ 10 µM.

Staying with this assay, now noted: Homo sapiens, HeLa, 2 h, 2 hrs compound treatment, Table 1 does not say HeLa wt or TRPML1 KO.
Regarding `Cc1ccc(S(=O)(=O)C(C)c2cccc(F)c2N2CCC(CN3C4CCC3COC4)CC2)cc1` (centres unmarked) [Compound A-905, 8-[(1-{2-fluoro-6-[1-(4-methylbenzenesulfonyl)ethyl]phenyl}piperidin-4-yl)methyl]-3-oxa-8-azabicyclo[3.2.1]octane], the concentration at half-maximal activity (AC50) was ≤ 2 µM.
Still for that read-out and setting: the figure for `CN(C)S(=O)(=O)c1ccc(S(=O)(=O)Nc2cccc(F)c2N2CCC(CN3C4COCC3C4)CC2)cc1` [Compound A-778, N4-3-fluoro-2-[4-(3-oxa-6-azabicyclo[3.1.1]heptan-6-ylmethyl)piperidin-1-yl]phenyl-N1,N1-dimethylbenzene-1,4-disulfonamide] is ≤ 2 µM.
Take `COc1ccc(S(=O)(=O)Nc2ccc3c(cnn3C)c2N2CCN(c3ncc(Cl)cc3F)CC2)cc1` [Compound A-140, N-{4-[4-(5-chloro-3-fluoropyridin-2-yl)piperazin-1-yl]-1-methyl-1H-indazol-5-yl}-4-methoxybenzene-1-sulfonamide]: the AC50 is ≤ 2 µM.
With `CP(=O)(Nc1ccccc1N1CCC(c2ccc(Cl)cc2F)CC1)c1ccccc1` (centres unmarked) [Compound A-66, 4-(4-chloro-2-fluorophenyl)-1-(2-{[methyl(phenyl)phosphoryl]amino}phenyl)piperidine], the AC50 was ≥ 10 µM.
On the same count and under the same terms, to `COCC1(C)CCN(c2c(NS(=O)(=O)c3ccc(S(=O)(=O)N(C)C)cc3)ccc3c2cnn3C)CC1` [Compound A-746, N4-{4-[4-(methoxymethyl)-4-methylpiperidin-1-yl]-1-methyl-1H-indazol-5-yl}-N1,N1-dimethylbenzene-1,4-disulfonamide] belongs ≤ 2 µM.
As for `COCC1(C)CCN(c2ccccc2NS(=O)(=O)Cc2cccc(Cl)c2)CC1` [Compound A-602, 1-(3-chlorophenyl)-N-{2-[4-(methoxymethyl)-4-methylpiperidin-1-yl]phenyl}methanesulfonamide], the half-maximal activity concentration (AC50) lay in the range of 2.01 to 8 µM.
The same measure, in the same setting: to `CN(C)S(=O)(=O)c1ccc(S(=O)(=O)Nc2ccccc2N2CCC(C)(COC(F)(F)F)CC2)cc1` [Compound A-784, N1,N1-dimethyl-N4-(2-{4-methyl-4-[(trifluoromethoxy)methyl]piperidin-1-yl}phenyl)benzene-1,4-disulfonamide] belongs ≤ 2 µM; to `COCC(C)N1CCN(c2ccccc2NS(=O)(=O)c2ccc(S(=O)(=O)N(C)C)cc2)CC1` (centres unmarked) [Compound A-418, N4-{2-[4-(1-methoxypropan-2-yl)piperazin-1-yl]phenyl}-N1,N1-dimethylbenzene-1,4-disulfonamide], 2.01 to 8 µM; to `Cc1noc(NS(=O)(=O)c2ccc(S(=O)(=O)N(C)C)cc2)c1C1=CCN(c2ccc(Cl)cc2F)CC1` [Compound A-65, N1-(4-(1-(4-chloro-2-fluorophenyl)-1,2,3,6-tetrahydropyridin-4-yl)-3-methylisoxazol-5-yl)-N4,N4-dimethylbenzene-1,4-disulfonamide], ≥ 10 µM.
Same read-out and setting: the figure for `CN(C)S(=O)(=O)c1ccc(S(=O)(=O)Nc2ccccc2N2CCC(CN3CCOCC3)CC2)cc1` [Compound A-554, N1,N1-dimethyl-N4-(2-{4-[(morpholin-4-yl)methyl]piperidin-1-yl}phenyl)benzene-1,4-disulfonamide] is ≤ 2 µM; for `COCC1(C)CCN(c2ccccc2NS(=O)(=O)c2ccc3c(c2)CCOC3)CC1` [Compound A-727, N-{2-[4-(methoxymethyl)-4-methylpiperidin-1-yl]phenyl}-3,4-dihydro-1H-2-benzopyran-6-sulfonamide] it is 2.01 to 8 µM.
Same read-out and setting: to `CC(C)(C)C(=O)N1CCN(c2ccccc2NS(=O)(=O)c2ccc(C(F)(F)F)cc2)CC1` [Compound A-527, N-{2-[4-(2,2-dimethylpropanoyl)piperazin-1-yl]phenyl}-4-(trifluoromethyl)benzene-1-sulfonamide] belongs 2.01 to 8 µM; to `CC(C)(C)C(=O)N1CCN(c2ccccc2NS(=O)(=O)c2ccc(C3CC3(F)F)cc2)CC1` (centres unmarked) [Compound A-528, 4-(2,2-difluorocyclopropyl)-N-{2-[4-(2,2-dimethylpropanoyl)piperazin-1-yl]phenyl}benzene-1-sulfonamide], 2.01 to 8 µM.
For the compound `Cc1noc(NS(=O)(=O)c2ccc(S(=O)(=O)N(C)C)cc2)c1C1CCN(c2ccc(Cl)cc2F)CC1` [Compound A-105, N4-{4-[1-(4-chloro-2-fluorophenyl)piperidin-4-yl]-3-methyl-1,2-oxazol-5-yl}-N1,N1-dimethylbenzene-1,4-disulfonamide], the AC50 was ≥ 10 µM.
Still for that read-out and setting: the figure for `CN(C)S(=O)(=O)c1ccc(S(=O)(=O)Nc2ccccc2N2CCC(COCC(F)F)CC2)cc1` [Compound A-730, N4-(2-{4-[(2,2-difluoroethoxy)methyl]piperidin-1-yl}phenyl)-N1,N1-dimethylbenzene-1,4-disulfonamide] is ≤ 2 µM; for `O=S(=O)(Nc1ccccc1N1CCC(c2c(F)cccc2F)CC1)c1ccc(S(=O)(=O)N2CCOCC2)cc1` [Compound A-217, N-{2-[4-(2,6-difluorophenyl)piperidin-1-yl]phenyl}-4-(morpholine-4-sulfonyl)benzene-1-sulfonamide] it is ≤ 2 µM; for `C[C@@H]1CN(CC2CCN(c3c(NS(=O)(=O)c4ccc(S(=O)(=O)N(C)C)cc4)cccc3C3CC3)CC2)C[C@H](C)O1` [Compound A-863, N4-[3-cyclopropyl-2-(4-{[(2R,6S)-2,6-dimethylmorpholin-4-yl]methyl}piperidin-1-yl)phenyl]-N1,N1-dimethylbenzene-1,4-disulfonamide] it is ≤ 2 µM.
For `CN(C)S(=O)(=O)c1ccc(S(=O)(=O)n2ccn(C3CCN(c4ccc(Cl)cc4F)CC3)c2=O)cc1` [Compound A-67, 4-((3-(1-(4-chloro-2-fluorophenyl)piperidin-4-yl)-2-oxo-2,3-dihydro-1H-imidazol-1-yl)sulfonyl)-N,N-dimethylbenzenesulfonamide], the AC50 was ≥ 10 µM.
The same measure, in the same setting: to `CN(C)S(=O)(=O)c1ccc(S(=O)(=O)Nc2ccccc2N2CCCN(C3CC3)CC2)cc1` [Compound A-484, N4-[2-(4-cyclopropyl-1,4-diazepan-1-yl)phenyl]-N1,N1-dimethylbenzene-1,4-disulfonamide] belongs 2.01 to 8 µM; to `CN(C)S(=O)(=O)c1ccc(S(=O)(=O)Nc2cccc(Cl)c2N2CCOCC2)nc1` [Compound A-340, N2-[3-chloro-2-(morpholin-4-yl)phenyl]-N5,N5-dimethylpyridine-2,5-disulfonamide], ≥ 10 µM; to `CN(C)S(=O)(=O)c1ccc(S(=O)(=O)Nc2cccc(F)c2N2CCC(N3CCC34CCCOC4)CC2)cc1` (centres unmarked) [Compound A-917, N4-[3-fluoro-2-(4-{6-oxa-1-azaspiro[3.5]nonan-1-yl}piperidin-1-yl)phenyl]-N1,N1-dimethylbenzene-1,4-disulfonamide], 2.01 to 8 µM.
Still for that read-out and setting: the figure for `CN1Cc2ccccc2C2(CCN(c3ccccc3NS(=O)(=O)c3ccc(S(C)(=O)=O)cc3)CC2)C1` [Compound A-398, 4-methanesulfonyl-N-(2-{2-methyl-2,3-dihydro-1H-spiro[isoquinoline-4,4′-piperidin]-1′-yl}phenyl)benzene-1-sulfonamide; formic acid] is 2.01 to 8 µM; for `CC(c1cccc(F)c1N1CCCCC1)S(=O)(=O)c1ccc2c(c1)CCS2(=N)=O` (single isomer, unassigned) [Compound A-959] it is ≥ 10 µM.
For the compound `CN(C)S(=O)(=O)c1ccc(S(=O)(=O)Nc2ccccc2N2CCN(c3ccc(Cl)cc3F)CC2)cc1` [Compound A-12, N4-{2-[4-(4-chloro-2-fluorophenyl)piperazin-1-yl]phenyl}-N1,N1-dimethylbenzene-1,4-disulfonamide], the AC50 is ≤ 2 µM.
On the same count and under the same terms, to `Cc1ccc(S(=O)(=O)Nc2ccccc2N2CCN(C(=O)C(C)c3ccccc3)CC2)cc1` (centres unmarked) [Compound A-334, 4-methyl-N-{2-[4-(2-phenylpropanoyl)piperazin-1-yl]phenyl}benzene-1-sulfonamide] belongs 2.01 to 8 µM; to `CC(c1cncc(F)c1N1CCC(F)(F)CC1)S(=O)(=O)c1ccc(S(=O)(=O)N(C)C)cc1` (centres unmarked) [Compound A-986, 4-{1-[4-(4,4-difluoropiperidin-1-yl)-5-fluoropyridin-3-yl]ethanesulfonyl}-N,N-dimethylbenzene-1-sulfonamide], ≥ 10 µM.
The compound `CC(C)Oc1ccc(S(=O)(=O)Nc2cccc(Cl)c2N2CCOCC2)cc1` [Compound A-457, N-[3-chloro-2-(morpholin-4-yl)phenyl]-4-(propan-2-yloxy)benzene-1-sulfonamide] registered a half-maximal activity concentration (AC50) of 2.01 to 8 µM.
With `COCC1CCN(c2ccccc2NS(=O)(=O)c2ccc3c(c2)CC(C)(C)O3)CC1` [Compound A-614, N-{2-[4-(methoxymethyl)piperidin-1-yl]phenyl}-2,2-dimethyl-2,3-dihydro-1-benzofuran-5-sulfonamide], the concentration at half-maximal activity (AC50) is ≤ 2 µM.
